Measurements as given in patent publication US7285536B2, “Anti-cancer therapeutic compounds” (Yeda Research and Development Co., Ltd., priority 2001, dated 2007).

System: 3LL lewis lung carcinoma, variant D122
Assay: 3LL Lewis lung carcinoma (D122) experimental lung metastasis in mice: survival and lung weight
Type: in vivo, C57BL/6 mice
Protocol: C57BL/6, 12 months old male mice were obtained from the Jackson Laboratory.
Syngeneic, 3LL lewis lung carcinoma, variant D122, was obtained from the Weizmann Institute of Science. This tumor line develops metastases in the lungs after intravenous (iv) inoculation.
Cells were cultured in DMEM medium containing high glucose and supplemented with 10% FCS, glutamine and penicillin.
Cells were incubated 24 hr before inoculation into the mice with the different disaccharides (300 ng/ml) in culture medium. Then, the cells were washed and injected i. v., (500,000 cells per mouse) in 100 μl PBS containing 30 ng of the corresponding disaccharide.
The number of dead mice was counted each day after the inoculation was performed. The mice were sacrificed at day 50 and the weights of their lung were determined.
Each group, injected by one of the disaccharides, contained 16 mice. Control mice received PBS alone. The different disaccharides, were injected to the mice subcutaneously (30 ng per mouse in 0.1 ml of PBS), one day before and one and two days after cell inoculation.

[1] = day 49 after 3LL injection, 16 mice per group, DS 30 ng per mouse s.c. one day before and one and two days after inoculation

Structure (SMILES): CC1(C)OC(COS(=O)(=O)O)[C@@](C)(COC[C@@]2(C)OC(C(=O)O)=CC(O)C2OS(=O)(=O)O)C(O)C1N (stereo partly drawn) [DS 8892, α-ΔUA-2S-[1→4]-GlcN-6S]
- responders at 30 ng (Mus musculus, Lewis lung carcinoma, sc, 1176 h, day 49 after 3LL injection, [live mice/total mice] × 100, PBS control 6.2): 25%
- inhibition in vivo at 30 ng (Mus musculus, Lewis lung carcinoma, sc, 1200 h, day 50 after 3LL injection, [1-(weights of treated group/weights of control group)] × 100, read-out: Decrease (%) of lung weight): 28.8%
- dead mice [1]: 12
- live mice [1]: 4
- Weights of lungs ± SD (day 50 after 3LL injection, PBS 0.92): 0.66 ± 0.18 gr.
- anti-tumor treatment / inhibition of tumor development (in words) (mice inoculated i.v. with 3LL cells, treated with DS): did not inhibit the tumor development at all
